This note sets out measurements from BindingDB's records for doi:10.1016/j.bmcl.2021.128008 (National Institute of Diabetes and Digestive and Kidney …, 2021).

The test addresses D(1B) dopamine receptor (Homo sapiens, UniProt P21918). The test is described as follows: Inhibition of dopamine D5 receptor (unknown origin).

Chain of D(1B) dopamine receptor (P21918 whole entry): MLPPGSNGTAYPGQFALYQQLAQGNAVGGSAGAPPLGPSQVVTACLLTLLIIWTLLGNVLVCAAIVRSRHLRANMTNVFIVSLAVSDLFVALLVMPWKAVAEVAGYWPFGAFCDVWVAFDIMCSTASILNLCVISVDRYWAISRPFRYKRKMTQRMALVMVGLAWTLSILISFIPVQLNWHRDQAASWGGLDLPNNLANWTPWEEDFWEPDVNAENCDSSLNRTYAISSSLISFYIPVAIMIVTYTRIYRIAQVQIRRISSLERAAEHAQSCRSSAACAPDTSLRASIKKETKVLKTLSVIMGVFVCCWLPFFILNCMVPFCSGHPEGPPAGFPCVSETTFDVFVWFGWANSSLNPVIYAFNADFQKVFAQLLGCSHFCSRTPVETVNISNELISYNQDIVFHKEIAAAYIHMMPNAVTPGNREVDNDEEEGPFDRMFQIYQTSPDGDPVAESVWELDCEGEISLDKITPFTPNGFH

The Ki is the dissociation constant of the complex between target and ligand, obtained from inhibition or displacement. Lower therefore signals tighter binding. Regarding `CC(C)(C)C#Cc1ccc2c(c1)C=C([N+](=O)[O-])C(C(F)(F)F)O2` (stereo unspecified), affinity was put at a Ki of 2100 nM.
